The record followed here is PubChem BioAssay AID256 (DTP/NCI, 2004).

This assay deals with CD2F1 mice, L1210 leukemia ip, survival T/C. Put plainly: NCI In Vivo Anticancer Drug Screen. Data for tumor model L1210 Leukemia (intraperitoneal) in CD2F1 (CDF1) mice. The note with it: higher = longer survival. An outline of the steps: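 Read-out first: treated-group measurement over vehicle-control measurement, expressed as a ratio. Animals bore a transplanted tumor line and were dosed with compound or vehicle.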

The mark [1] stands for this setting: endpoint: mean survival time, dose: 50.0 mg/kg/injection, schedule: Q01DX009 (ip), vehicle: saline with Tween-80.
[2] abbreviates: endpoint: mean survival time, dose: 100.0 mg/kg/injection, schedule: Q01DX009 (ip), vehicle: saline with Tween-80.
Where [3] appears, read: endpoint: mean survival time, dose: 200.0 mg/kg/injection, schedule: Q01DX009 (ip), vehicle: saline with Tween-80.
Setting [4] is: endpoint: mean survival time, dose: 100.0 mg/kg/injection, schedule: Q04DX003 (ip), vehicle: saline with Tween-80.
The mark [5] stands for this setting: endpoint: mean survival time, dose: 200.0 mg/kg/injection, schedule: Q04DX003 (ip), vehicle: saline with Tween-80.
Where [6] appears, read: endpoint: mean survival time, dose: 400.0 mg/kg/injection, schedule: Q04DX003 (ip), vehicle: saline with Tween-80.

The structures appear in SMILES notation. Several values for one entry are separate records, joined by “and”; a condition that tells them apart may be missing. Equal entries are not always repeated. Toxic doses and inconclusive results are not listed.

Regarding `CNC(=O)NCc1ccc(C(=O)NC(C)C)cc1`, the T/C by setting is: (endpoint: mean survival time, dose: 50.0 mg/kg/injection, schedule: Q01DX009 (ip), vehicle: other) 100 % of control; (endpoint: mean survival time, dose: 100.0 mg/kg/injection, schedule: Q01DX009 (ip), vehicle: other) 101 % of control; (endpoint: mean survival time, dose: 200.0 mg/kg/injection, schedule: Q01DX009 (ip), vehicle: other) 100 % of control; (endpoint: mean survival time, dose: 400.0 mg/kg/injection, schedule: Q01DX009 (ip), vehicle: other) 89 % of control.
Take `O=C(C(=Nc1ccccc1)c1ccccc1)c1ccccc1`: the T/C by setting is: under setting [1], 100 % of control; under setting [2], 97 % of control; under setting [3], 97 % of control.
Take `CCCCCCCCCCCCCCCCCS(=O)S(=O)O` (stereo unspecified): the T/C by setting is: under setting [4], 98 % of control; under setting [5], 94 % of control; under setting [6], 93 % of control.
With `CC(C)(C)CC(C)(C)c1ccc(O)c(O)c1`, the T/C was 101 % of control (endpoint: mean survival time, dose: 25.0 mg/kg/injection, schedule: Q04DX003 (ip), vehicle: saline with Tween-80); 93 % of control (endpoint: mean survival time, dose: 50.0 mg/kg/injection, schedule: Q04DX003 (ip), vehicle: saline with Tween-80); 96 % of control under setting [4].
`C[n+]1c(-c2ccc(NC(=O)c3ccc(C(=O)Nc4ccc(-c5cn6ccccc6[n+]5C)cc4)cc3)cc2)cn2ccccc21`: the T/C is, setting by setting: (endpoint: median survival time, dose: 5.4 mg/kg/injection, schedule: Q01DX005 (ip), vehicle: saline with Tween-80) 200 % of control; (endpoint: median survival time, dose: 6.25 mg/kg/injection, schedule: Q01DX005 (ip), vehicle: saline with Tween-80) 168 % of control; (endpoint: median survival time, dose: 9.0 mg/kg/injection, schedule: Q01DX005 (ip), vehicle: saline with Tween-80) 211 % of control; (endpoint: median survival time, dose: 12.5 mg/kg/injection, schedule: Q01DX005 (ip), vehicle: saline with Tween-80) 200 % of control; (endpoint: median survival time, dose: 15.0 mg/kg/injection, schedule: Q01DX005 (ip), vehicle: saline with Tween-80) 352 % of control; (endpoint: median survival time, dose: 25.0 mg/kg/injection, schedule: Q01DX005 (ip), vehicle: saline with Tween-80) 312 % of control and 341 % of control. Besides, the T/C is, setting by setting: (endpoint: median survival time, dose: 42.0 mg/kg/injection, schedule: Q01DX005 (ip), vehicle: saline with Tween-80) 152 % of control; (endpoint: median survival time, dose: 100.0 mg/kg/injection, schedule: Q01DX005 (ip), vehicle: saline with Tween-80) 86 % of control; (endpoint: median survival time, dose: 116.0 mg/kg/injection, schedule: Q01DX005 (ip), vehicle: saline with Tween-80) 109 % of control.
On to `O=C(CF)[O][Sb]([O]C(=O)CF)([c]1ccccc1)([c]1ccccc1)[c]1ccccc1`, for which the T/C is 105 % of control (endpoint: mean survival time, dose: 5.0 mg/kg/injection, schedule: Q01DX009 (ip), vehicle: saline with Tween-80) and 108 % of control (endpoint: mean survival time, dose: 10.0 mg/kg/injection, schedule: Q01DX009 (ip), vehicle: saline with Tween-80).
In the case of `CS(=O)(=O)[O-].CS(=O)(=O)[O-].NC1CCCCC1N.[Pt+4]` (stereo unspecified), the T/C (endpoint: mean survival time, dose: 0.16 mg/kg/injection, schedule: Q04DX003 (ip), vehicle: other) is 124 % of control; the T/C (endpoint: mean survival time, dose: 0.62 mg/kg/injection, schedule: Q01DX009 (ip), vehicle: dextrose) was 119 % of control; the T/C (endpoint: mean survival time, dose: 5.0 mg/kg/injection, schedule: Q01DX009 (ip), vehicle: dextrose) was 93 % of control.
`COc1cc(OC)c(OC)cc1/C=C\c1ccnc2ccccc12`: the T/C reads like this: (endpoint: mean survival time, dose: 12.5 mg/kg/injection, schedule: Q01DX009 (ip), vehicle: Klucel (hydroxypropylcellulose) (HPC)) 96 % of control; (endpoint: mean survival time, dose: 25.0 mg/kg/injection, schedule: Q01DX009 (ip), vehicle: Klucel (hydroxypropylcellulose) (HPC)) 95 % of control; (endpoint: mean survival time, dose: 50.0 mg/kg/injection, schedule: Q01DX009 (ip), vehicle: Klucel (hydroxypropylcellulose) (HPC)) 98 % of control; (endpoint: mean survival time, dose: 100.0 mg/kg/injection, schedule: Q01DX009 (ip), vehicle: Klucel (hydroxypropylcellulose) (HPC)) 102 % of control; (endpoint: mean survival time, dose: 200.0 mg/kg/injection, schedule: Q01DX009 (ip), vehicle: Klucel (hydroxypropylcellulose) (HPC)) 112 % of control; (endpoint: mean survival time, dose: 400.0 mg/kg/injection, schedule: Q01DX009 (ip), vehicle: Klucel (hydroxypropylcellulose) (HPC)) 110 % of control.
Turning to `CC(=O)c1cccc(C(=O)O)c1`, the T/C was 103 % of control (endpoint: mean survival time, dose: 100.0 mg/kg/injection, schedule: Q01DX001 (ip), vehicle: saline with Tween-80); 101 % of control (endpoint: mean survival time, dose: 200.0 mg/kg/injection, schedule: Q01DX001 (ip), vehicle: saline with Tween-80); 103 % of control (endpoint: mean survival time, dose: 400.0 mg/kg/injection, schedule: Q01DX001 (ip), vehicle: saline with Tween-80).
As to `O=C(O)c1cc(-c2ccc(Cl)cc2)nc2c1ccc1ccccc12`, the T/C reads like this: (endpoint: mean survival time, dose: 100.0 mg/kg/injection, schedule: Q01DX001 (ip), vehicle: saline) 102 % of control; (endpoint: mean survival time, dose: 200.0 mg/kg/injection, schedule: Q01DX001 (ip), vehicle: saline) 97 % of control.
For the compound `[Cl][Pt]([Cl])[Cl].[NH-]C1CN2CCC1CC2` (stereo unspecified), the T/C was 119 % of control (endpoint: mean survival time, dose: 2.5 mg/kg/injection, schedule: Q04DX003 (ip), vehicle: saline with Tween-80) and 122 % of control (endpoint: mean survival time, dose: 5.0 mg/kg/injection, schedule: Q04DX003 (ip), vehicle: saline with Tween-80).
For the compound `C(=N/N=C/c1ccsc1)/c1ccsc1`, the T/C was 90 % of control (endpoint: median survival time, dose: 50.0 mg/kg/injection, schedule: Q04DX002 (ip), vehicle: saline with Tween-80); 90 % of control (endpoint: median survival time, dose: 100.0 mg/kg/injection, schedule: Q04DX002 (ip), vehicle: saline with Tween-80); 90 % of control (endpoint: median survival time, dose: 200.0 mg/kg/injection, schedule: Q04DX002 (ip), vehicle: saline with Tween-80); 90 % of control (endpoint: median survival time, dose: 400.0 mg/kg/injection, schedule: Q04DX002 (ip), vehicle: saline with Tween-80).
In the case of `Cc1ccc(S(=O)(=O)Nc2ccc(I)cc2)cc1`, the T/C was 94 % of control under setting [1]; 97 % of control under setting [2]; 92 % of control under setting [4]; 95 % of control under setting [3]; 94 % of control under setting [5]; 86 % of control under setting [6].
As to `CC(C)(C)[N+](=O)[O-]`, the T/C was 93 % of control (endpoint: mean survival time, dose: 50.0 mg/kg/injection, schedule: Q01DX009 (ip), vehicle: saline); 93 % of control (endpoint: mean survival time, dose: 100.0 mg/kg/injection, schedule: Q01DX009 (ip), vehicle: saline); 93 % of control (endpoint: mean survival time, dose: 200.0 mg/kg/injection, schedule: Q01DX009 (ip), vehicle: saline).
For the compound `COc1cc2nncc(Sc3cnnc4ccccc34)c2cc1OC`, the T/C runs as follows: (endpoint: mean survival time, dose: 100.0 mg/kg/injection, schedule: Q01DX001 (ip), vehicle: other) 92 % of control; (endpoint: mean survival time, dose: 200.0 mg/kg/injection, schedule: Q01DX001 (ip), vehicle: other) 86 % of control; (endpoint: mean survival time, dose: 400.0 mg/kg/injection, schedule: Q01DX001 (ip), vehicle: other) 92 % of control.
Consider `O=C(O)C1C2C=CC3(CN(CCc4ccccc4)C(=O)C13)O2` (stereo unspecified), for which the T/C was 95 % of control (endpoint: mean survival time, dose: 100.0 mg/kg/injection, schedule: Q04DX002 (ip), vehicle: saline with Tween-80); 95 % of control (endpoint: mean survival time, dose: 200.0 mg/kg/injection, schedule: Q04DX002 (ip), vehicle: saline with Tween-80); 103 % of control (endpoint: mean survival time, dose: 400.0 mg/kg/injection, schedule: Q04DX002 (ip), vehicle: saline with Tween-80).
As to `OCC1OC(n2ncc3c2ncn2ccnc32)C(O)C1O` (stereo unspecified), the T/C by setting is: (endpoint: mean survival time, dose: 12.5 mg/kg/injection, schedule: Q01DX005 (ip), vehicle: water) 101 % of control; (endpoint: mean survival time, dose: 25.0 mg/kg/injection, schedule: Q01DX005 (ip), vehicle: water) 101 % of control; (endpoint: mean survival time, dose: 50.0 mg/kg/injection, schedule: Q01DX005 (ip), vehicle: water) 97 % of control; (endpoint: mean survival time, dose: 100.0 mg/kg/injection, schedule: Q01DX005 (ip), vehicle: water) 97 % of control; (endpoint: mean survival time, dose: 200.0 mg/kg/injection, schedule: Q01DX005 (ip), vehicle: water) 109 % of control.
As for `Nc1nc2c(ncn2-c2ccccc2Br)c(=O)[nH]1`, the T/C (endpoint: mean survival time, dose: 75.0 mg/kg/injection, schedule: Q01DX001 (ip), vehicle: saline with Tween-80) is 101 % of control; the T/C (endpoint: mean survival time, dose: 150.0 mg/kg/injection, schedule: Q01DX001 (ip), vehicle: saline with Tween-80) was 100 % of control; the T/C (endpoint: mean survival time, dose: 300.0 mg/kg/injection, schedule: Q01DX001 (ip), vehicle: saline with Tween-80) is 101 % of control.
`CC(C)(c1cc(Cl)c(OCCO)c(Cl)c1)c1cc(Cl)c(OCCO)c(Cl)c1`: the T/C runs as follows: under setting [4], 105 % of control; under setting [5], 102 % of control; under setting [6], 109 % of control.
For the compound `Nc1c([N+](=O)[O-])ccc2ccccc12`, the T/C is 95 % of control under setting [2]; 93 % of control under setting [4]; 93 % of control under setting [3]; 93 % of control under setting [5]; 92 % of control (endpoint: mean survival time, dose: 400.0 mg/kg/injection, schedule: Q01DX009 (ip), vehicle: saline with Tween-80); 92 % of control under setting [6].
